Measurements from patent US20230172923A1, “METHODS OF TREATING CYTOKINE-RELATED ADVERSE EVENTS” (BRISTOL-MYERS SQUIBB COMPANY, priority 2020, published 2023).

Legend:
Format in all cases: cell-based, human
MIP-1α = assay: LPS-stimulated PBMC cytokine production, multiplex cytokine analysis: MIP-1α; conditions: Homo sapiens, PBMC, PBMC 2×10^6 cells/ml, compound 1 hour, then 1 ng/ml LPS 18 hours
Method: (§1) Peripheral blood mononuclear cells (PBMCs) were isolated from the blood of healthy human donors by Ficoll cell separation. The PBMCs were seeded at a concentration of 2×10^6 cells/ml and treated for 1 hour at 37° C. with various concentrations of IMiD compounds or control DMSO (0.25%), before stimulation with 1 ng/ml LPS for 18 hours at 37° C.
(§2) Supernatant samples were subjected to multiplex cytokine analysis (Luminex IS100 instrument) to quantify secreted levels of IL-6, IL-8, IL1-beta (IL-1β), GM-CSF, MDC, MIP-1alpha (MIP-1α), MIP-1beta (MIP-1β) and TNF-alpha (TNF-α) (see e.g. FIGS. 7A-C).
(§3) IC50 (half maximal inhibitory concentration) values were calculated to measure the potency of each IMiD compound in inhibiting LPS-stimulated secretion of each cytokine (see Table 25).

IL-8 = assay: LPS-stimulated PBMC cytokine production, multiplex cytokine analysis: IL-8; conditions: Homo sapiens; PBMC 2×10^6 cells/ml, compound 1 hour, then 1 ng/ml LPS 18 hours
Method: as §1, §2, §3

GM-CSF = assay: LPS-stimulated PBMC cytokine production, multiplex cytokine analysis: GM-CSF; conditions: Homo sapiens, PBMC, PBMC 2×10^6 cells/ml, compound 1 hour, then 1 ng/ml LPS 18 hours
Method: Peripheral blood mononuclear cells (PBMCs) were isolated from the blood of healthy human donors by Ficoll cell separation. […] Supernatant samples were subjected to multiplex cytokine analysis (Luminex IS100 instrument) to quantify secreted levels of IL-6, IL-8, IL1-beta (IL-1β), GM-CSF, MDC, MIP-1alpha (MIP-1α), MIP-1beta (MIP-1β) and TNF-alpha (TNF-α) (see e.g. FIGS. 7A-C). IC50 (half maximal inhibitory concentration) values were calculated to measure the potency of each IMiD compound in inhibiting LPS-stimulated secretion of each cytokine (see Table 25).

TNF-alpha = assay: LPS-induced TNF-alpha secretion from PBMCs, overnight pre-treatment (MSD); conditions: overnight 1000 nM lenalidomide, 100 nM pomalidomide, 10 nM iberdomide or 1 nM Compound 1; LPS 24 hours
Method: Fresh PBMCs isolated from healthy volunteers were seeded at a concentration of 1×10^6 cells/ml and treated with the indicated concentration of IMiD drugs/CELMoD agents or DMSO overnight before stimulation with the indicated concentration of LPS. After 24 hours, the cell culture media was collected and IL-6, TNF-alpha and IL1-beta levels in the supernatant were assessed using an MSD assay. ULOQ = Upper limit of quantification.
Fresh peripheral blood mononuclear cells (PBMCs) were isolated from the blood (buffy coat) of healthy human volunteers by Ficoll based cell separation. The isolated PBMCs were seeded at a concentration of 1×10^6 cells/ml and treated with 1000 nM lenalidomide, 100 nM pomalidomide, 10 nM iberdomide, 1 nM Compound 1 (CC-92480) or control DMSO, overnight (~17 hours). The next morning, the PBMCs were stimulated with various concentrations of LPS (Lipopolysaccharides from Escherichia coli O111:B4).
After 24 hours, the cell culture media was collected from the control and stimulated cells, spun down at 300 g for 5 minutes to remove cells and the supernatant was subjected to cytokine analysis to quantify secreted levels of IL-6, TNF-alpha (TNF-α) and IL1-beta (IL-1β) using an MSD assay (see e.g. FIGS. 8A-C).

NCI-H929 cells = assay: CC-93269 mediated cytotoxicity assay with chronically stimulated T-cells, NCI-H929 target cells (IncuCyte); conditions: anti-CD3/CD28 7 days with 100 nM pomalidomide, 10 nM iberdomide or 1 nM CC-92480; CC-93269 47 pM; E:T 1:4
Method: Cell growth kinetics of A) NCI-H929 and B) OPM-2 cells in CC-93269 (47 pM) cytotoxicity assays on the IncuCyte® S3 Live-Cell Analysis System. Healthy donor T-cells were used as effector cells with or without chronic stimulation with anti-CD3/CD28 (7 days) in the presence of DMSO or CM agents (100 nM Pomalidomide, 10 nM CC-220 or 1 nM CC-92480). T-cells and NCI-H929 cells were co-cultured at E:T ratios of 1:4 (NCI-H929) or 1:2 (OPM-2). […] In contrast, prior exposure to CM agents prevented functional TBMS cell exhaustion and CC-93269 activity was similar or better to those observed with freshly thawed T-cells. Values shown represent the mean ± standard deviation of AUC values of 2-3 replicates from the same experiment.
To evaluate the effects of Cereblon modulating (CM) agents on T-cell function after chronic stimulation (i.e. mimicking T cell exhaustion), CD3+ enriched healthy donor T-cells were stimulated with anti-CD3/CD28 in the presence of DMSO (control), 100 nM pomalidomide, 10 nM iberdomide (CC-220) or 1 nM Compound 1 (CC-92480) for 7 days. Prolonged and repetitive anti-CD3/CD28 stimulation of T-cells results in functional T-cell exhaustion in vitro.
The chronically stimulated T-cells were then used in CC-93269 mediated cytotoxicity assays with NCI-H929 or OPM-2 multiple myeloma (MM) target cells. The T-cells were washed to remove compounds, and mixed with fluorescently labelled MM cell lines (NCI-H929, OPM-2) at optimized effector-to-target (E:T) ratios (1:2 or 1:4) in the presence of fixed concentrations of CC-93269 (47 pM). Freshly thawed T-cells (i.e. non-exhausted T-cells) from the same donor were used as control effector cells. In this experimental cytotoxicity assay setup, the number of target cells was continuously monitored using the IncuCyte® S3 Live-Cell Analysis System for a minimum of 10 days. Cell culture supernatants were taken from wells from subsequent CC-93269 mediated cytotoxicity assays at 3 days after mixing with MM target cells. CD3+ T cells from 2 or 3 independent healthy donors were tested for each MM cell line.

Structure (SMILES) | IC50 (MIP-1α) [µM] | IC50 (IL-8) [µM] | IC50 (GM-CSF) [µM] | LPS-induced secretion of TNF-α from PBMCs (TNF-alpha) | cytolytic function of chronically stimulated T-cells in CC-93269-directed killing of NCI-H929 cells (NCI-H929 cells)
Nc1cccc2c1CN(C1CCC(=O)NC1=O)C2=O (stereo not shown) [Lenalidomide, 3-(4-amino-1-oxo-2,3-dihydro-1H-isoindol-2-yl) piperidine-2,6-dione] | > 10 | > 10 | > 10 | reduces | –
O=C1CC[C@H](N2Cc3c(OCc4ccc(CN5CCOCC5)cc4)cccc3C2=O)C(=O)N1 [Iberdomide, (S)-3-(4-((4-(morpholinomethyl)benzyl)oxy)-1-oxoisoindolin-2-yl)piperidine-2,6-dione] | 0.028 | > 10 | 0.0022 | reduces | beneficial effects on the cytolytic function of T-cells
N#Cc1ccc(N2CCN(Cc3ccc(COc4cccc5c4CN(C4CCC(=O)NC4=O)C5=O)cc3)CC2)c(F)c1 (stereo not drawn) [Compound 1, 4-(4-(4-(((2-(2,6-dioxopiperidin-3-yl)-1-oxoisoindolin-4-yl)oxy)methyl)benzyl)piperazin-l-yl)-3-fluorobenzonitrile] | – | – | – | reduces | beneficial effects on the cytolytic function of T-cells
Nc1cccc2c1C(=O)N(C1CCC(=O)NC1=O)C2=O (stereo not shown) [Pomalidomide, 4-amino-2-(2,6-dioxopiperidine-3-yl)isoindoline-1,3-dione] | 0.23 | 2.9 | 1.5 | reduces | beneficial effects on the cytolytic function of T-cells
